Source: publication PMC11184370 (RSC Advances, 2024)
Read-outs that look alike come from different tables or passages of the source.

How the values were obtained:
[1] = tested on: HeLa cervical carcinoma cells; conditions: read-out: In vitro cytotoxicity IC50, HeLa; 48 h ref [85]; cited from earlier work
[2] = tested on: MCF7 breast carcinoma cells; conditions: read-out: In vitro cytotoxicity IC50, MCF7; 24 h ref [84]; cited from earlier work
ctDNA [3] = assay: UV-visible absorption titration with ctDNA; assay type: binding, calf thymus; conditions: Tris–HCl buffer pH 7.2
tRNA [4] = assay: UV-visible absorption titration with tRNA; assay type: binding, yeast; conditions: Tris–HCl buffer pH 7.2
ctDNA [5] = assay: Ethidium bromide displacement, fluorescence quenching of EB-ctDNA adduct; assay type: binding, calf thymus; conditions: λem = 580 nm; for Quenching constant (Ksv), emission spectroscopy, ctDNA: EB 5 μM, DNA 50 μM, [Q] 10–200 μM
tRNA [6] = assay: Ethidium bromide displacement, fluorescence quenching of EB-tRNA adduct; assay type: binding, yeast; conditions: λem = 580 nm; for Quenching constant (Ksv), emission spectroscopy, tRNA: EB 5 μM, RNA 50 μM, [Q] 10–200 μM
[7] = molecular target: T1, Bovine serum albumin (BSA) (Bos taurus, UniProt P02769); assay: BSA absorption titration; assay type: binding; conditions: λmax = 278 nm
T1 sequence (P02769 25-607): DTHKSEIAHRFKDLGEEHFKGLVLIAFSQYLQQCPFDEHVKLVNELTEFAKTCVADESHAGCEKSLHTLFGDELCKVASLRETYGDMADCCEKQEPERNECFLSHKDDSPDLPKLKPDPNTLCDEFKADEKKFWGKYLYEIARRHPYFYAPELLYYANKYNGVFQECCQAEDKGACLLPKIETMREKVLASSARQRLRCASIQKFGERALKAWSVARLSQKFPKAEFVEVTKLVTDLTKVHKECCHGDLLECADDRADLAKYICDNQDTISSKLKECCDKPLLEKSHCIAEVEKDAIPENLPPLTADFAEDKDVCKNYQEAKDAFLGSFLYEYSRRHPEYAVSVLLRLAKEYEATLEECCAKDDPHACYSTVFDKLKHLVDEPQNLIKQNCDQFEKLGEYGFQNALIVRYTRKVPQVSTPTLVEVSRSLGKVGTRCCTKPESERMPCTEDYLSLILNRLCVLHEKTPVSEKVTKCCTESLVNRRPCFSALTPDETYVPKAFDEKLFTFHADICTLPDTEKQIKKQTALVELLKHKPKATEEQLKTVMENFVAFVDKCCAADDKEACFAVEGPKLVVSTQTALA

[8] = molecular target: T1, Bovine serum albumin (BSA); assay: BSA fluorescence quenching; assay type: binding; conditions: λmax = 345 nm; for Quenching rate constant (Kq), BSA emission: τ0 = 10^−8 s
[9] = tested on: WI38 normal lung fibroblast cells; assay: MTT in vitro cytotoxicity, WI38; assay type: cell-based, human; conditions: read-out: In vitro cytotoxicity IC50, WI38
[10] = tested on: HeLa cervical carcinoma cells; assay: MTT in vitro cytotoxicity, HeLa; assay type: cell-based, human; conditions: for Selective index (SI), HeLa: vs WI38; for IC50: read-out: In vitro cytotoxicity IC50, HeLa
[11] = tested on: MCF7 breast carcinoma cells; assay: MTT in vitro cytotoxicity, MCF7; assay type: cell-based, human; conditions: for Selective index (SI), MCF7: vs WI38; for IC50: read-out: In vitro cytotoxicity IC50, MCF7
[12] = Solution stability by UV-visible spectroscopy in PBS; assay type: physicochemical; conditions: PBS pH 7.2 / DMSO, 2.5 × 10^−5 M, up to 48 h
HeLa cells [13] = assay: Cell cycle distribution by flow cytometry; assay type: cell-based, human; conditions: IC50 concentration, 24 h, control 20.3%
HeLa cells [14] = assay: Annexin V/propidium iodide flow cytometry; assay type: cell-based, human; conditions: IC50, 24 h

| Compound | % H* (hypochromism), absorption spectroscopy, ctDNA (ctDNA [3]) [%] | % H* (hypochromism), absorption spectroscopy, tRNA (tRNA [4]) [%] | % H, emission spectroscopy, ctDNA (ctDNA [5]) [%] | Quenching constant (Ksv), emission spectroscopy, ctDNA (ctDNA [5]) | % H, emission spectroscopy, tRNA (tRNA [6]) [%] | Quenching constant (Ksv), emission spectroscopy, tRNA (tRNA [6]) | % hyper (hyperchromism), BSA absorption spectroscopy [7] [%] | % hypo, BSA emission spectroscopy [8] [%] | Number of binding sites (n), BSA emission [8] | Stern–Volmer quenching constant (Ksv), BSA emission [8] | Quenching rate constant (Kq), BSA emission [8] [M⁻¹ s⁻¹] | IC50 ([9]; 24 h) [µM] | IC50 ([9]; 48 h) [µM] | Selective index (SI), HeLa ([10]; 24 h) | Selective index (SI), HeLa ([10]; 48 h) | IC50 ([10]; 24 h) [µM] | IC50 ([10]; 48 h) [µM] | Selective index (SI), MCF7 ([11]; 24 h) | IC50 ([11]; 24 h) [µM] | IC50 ([11]; 48 h) [µM] | further results |
| --- | --- | --- | --- | --- | --- | --- | --- | --- | --- | --- | --- | --- | --- | --- | --- | --- | --- | --- | --- | --- | --- |
| N.N.[Cl][Pt][Cl] [Cisplatin, cis-platin] |  |  |  |  |  |  |  |  |  |  |  |  |  |  |  |  |  |  |  |  | IC50 [1]: 67.6 ± 2 µM; IC50 [2]: 31.2 ± 1.8 µM |
| 3-acetylcoumarin benzoylhydrazone [HL] | 8.35 | 7.20 | 32.4 | 0.34 ×10^4 | 26.1 | 1.19 ×10^4 | 39.03 | 27.18 | 0.93 | 2.33 × 10^4 | 2.33e+12 | 71.1 ± 3.4 | 75 ± 3.5 | 1.15 | 1.57 | 61.6 ± 3.1 | 47.6 ± 2.9 | 1.74 | 40.8 ± 2.6 | 36.8 ± 2.4 | Selective index (SI), MCF7 ([11]; 48 h): 2.03; Solution stability (changes of UV-visible spectrum with time) [12]: insignificant changes up to the first 3 h then suffered hydrolysis in the aqueous media through the next 24 h |
| [Ag(HL)2]NO3 [Complex C3] | 6.81 | 6.66 | 50.1 | 0.52 ×10^4 | 26.9 | 1.6 ×10^4 | 40.74 | 35.69 | 0.92 | 4.98 × 10^4 | 4.98e+12 | 75.4 ± 3.6 | 63.6 ± 3.3 | 1.93 | 1.95 | 39.1 ± 2.5 | 32.5 ± 2.3 | 1.28 | 58.8 ± 2.9 | 54 ± 3 | Solution stability (changes of UV-visible spectrum with time) [12]: slight decrease in absorption intensity |
| [Pt(HL)Cl]Cl [Complex C2] | 10.4 | 7.60 | 54.2 | 1.42 ×10^4 | 48.8 | 4.51 ×10^4 | 11.90 | 42.63 | 1.03 | 5.39 × 10^4 | 5.39e+12 | 29.5 ± 2.2 | 31.3 ± 2.2 | 3.63 | 4.95 | 8.12 ± 0.7 | 6.31 ± 0.4 | 2.39 | 12.3 ± 0.9 | 8.61 ± 0.6 | Selective index (SI), MCF7 ([11]; 48 h): 3.63; Cells in G2/M phase (HeLa cells [13]): 20.3%; Change of necrotic cells compared to untreated HeLa cells (HeLa cells [14]): 1.6 fold; Solution stability (changes of UV-visible spectrum with time) [12]: insignificant changes during the 48 h test |
